Test [1] concerns the target T1, ERK2 D316N (Mus musculus, UniProt P63085, D316N).
T1 construct: (His)x6; made in house; host or cells: bacteria (as described for ERK2 in general; not repeated for the mutant)
Put plainly: Fluorescence titration with ERK2 point mutant D316N (CD domain). The format is binding. To be noted: fluorescence quenching. The method, then:
Direct binding interactions between ERK2 and the biologically active compounds is determined using fluorescence spectroscopy (47). Experiments measure the changes in the intrinsic ERK2 fluorescence due to the presence of aromatic amino acids, with the indole group of tryptophan being the major fluorophore with absorption and emission maxima around 280 and 340 nanometers (nm), respectively. Fluorescence spectra were recorded with a Luminescence Spectrometer LS50 (Perkin Elmer, Boston, Mass.). For all experiments, ERK2 protein was diluted into 20 mM Tris-HCl, pH 7.5. Titrations were performed by increasing the test compound concentration while maintaining the ERK2 protein concentration at 3 μM.
Unphosphorylated and phosphorylated ERK2 typically are incubated with […] of the biologically active compounds and the fluorescence intensity is measured. If necessary, higher inhibitor concentrations are used to saturate fluorescence quenching. The excitation wavelength was 295 nm and fluorescence was monitored from 300 to 500 nm. All reported fluorescence intensities are relative values and are not corrected for wavelength variations in detector response. […] Because the test compounds contain aromatic structures, the emission spectra of the active compounds in the absence of ERK2 is be determined. […]

Test [2] concerns ERK-mediated phosphorylation of Elk-1 on S383. As to the kind of experiment: ERK-mediated Elk-1 phosphorylation (Ser383), immunoblot in EGF-stimulated HeLa cells. The format is cell-based, human. On the procedure:
Prior to harvesting, cells were pre-incubated with the test compounds for 15-20 minutes and then stimulated with EGF or anisomycin to activate the ERK or p38 MAP kinase pathways, respectively. […] The lysates then were diluted with an equal volume of 2X SDS-sample buffer and the proteins were separated on SDS-PAGE for immunoblot analysis. Immunoblot analysis was done as previously described (41-43).
Cells were treated with EGF to activate the ERK pathway and phosphorylation of Elk-1 on the ERK site at S383 was detected by immunoblot analysis (FIG. 5C). […] The effects of the test compounds were also tested with Rsk-1, another ERK substrate involved in regulating cell proliferation.

In test [3] the test system is ERK1/2 phosphorylation by MEK1/2. As to the kind of experiment: ERK1/2 phosphorylation on activating sites (upstream MEK1/2), immunoblot. To be noted: HeLa cells, EGF stimulated. The format is cell-based, human. The method, then: HeLa cells were pretreated with or without 100 μM of test compounds for 5 min (FIGS. 5A-5B) or 15 min (FIGS. 5C-5E) prior to the addition of epidermal growth factor (EGF or E) to stimulate the ERK pathway or anisomycin (A) to stimulate p38 MAP kinase. In FIGS. 5A-5B HeLa cells were treated with EGF for 5 minutes. […] The far left lane is the control (−) with no EGF. […] The control (C) is EGF only treatment. In FIG. 5B cells pretreated with increasing concentrations of compound 76 were stimulated with EGF. ELK-1 phosphorylation on Ser383 (pELK-1) was measured by immunoblotting. The expression of dually phosphorylated ERK1/2 (ppERK1/2) and a-tubulin as a loading control are also shown. […] The pElk-1 phosphorylation in the presence of the test compounds was compared to the EGF only treatment, which was set at 100%. […] The pRsk-1 phosphorylation in the presence of the test compounds was compared to the EGF only treatment, which was set at 100%. […] The pATF2 phosphorylation in the presence of the test compounds was compared to the anisomycin (A) only treatment, which was set at 100%. The data were reproduced in at least 3 independent experiments.
Prior to harvesting, cells were pre-incubated with the test compounds for 15-20 minutes and then stimulated with EGF or anisomycin to activate the ERK or p38 MAP kinase pathways, respectively. […]
A general note: Immunoblotting shows a protein as a band on a membrane.

Test [4] has as its system A549 lung carcinoma cells. As to the kind of experiment: Colony formation assay, A549 cells. Type of test: cell-based, human. The following applies: colony formation dose response (FIG. 7C). The method, then:
HeLa, A549, or SUM-159 cells were plated at a low density of ˜200-400 cells per well in the absence or presence of putative ERK docking domain inhibitors. Cell colonies were stained with crystal violet and counted after 6-10 days. In FIG. 7A cells were grown on 10 cm plates in the absence (−) or presence of 100 mM of compound 67, 36, 68, 81, or 76. Colony formation dose response in the presence of the indicated concentrations of compound 76 or 81 for Hela cells (100 mM) (FIG. 7B), A549 cells (50 mM) (FIG. 7C), or SUM-159 cells (50 mM) (FIG. 7D).
Trypsinized cells were plated on 12 or 24 well plates at low densities (200-400 cells per well) in the absence (DMSO only) or presence of test compounds. In additional experiments, cells were first allowed to adhere to the culture dishes for 16 hours prior to treatment with test compounds. The treated cells received a single dose of the test compounds at the beginning of the experiments. The control and treated cells were grown for 8-14 days to allow the formation of colonies. Cells then were fixed for 10 minutes in 4% paraformaldehyde and stained with 0.2% crystal violet (in 20% methanol) for 1-2 minutes. Following several washes with distilled water, the colonies (containing at least 40 cells) were counted. Each individual experiment was repeated on at least 3 separate occasions.

Each structure is given as a SMILES string.

T1 sequence (P63085 whole entry D316N): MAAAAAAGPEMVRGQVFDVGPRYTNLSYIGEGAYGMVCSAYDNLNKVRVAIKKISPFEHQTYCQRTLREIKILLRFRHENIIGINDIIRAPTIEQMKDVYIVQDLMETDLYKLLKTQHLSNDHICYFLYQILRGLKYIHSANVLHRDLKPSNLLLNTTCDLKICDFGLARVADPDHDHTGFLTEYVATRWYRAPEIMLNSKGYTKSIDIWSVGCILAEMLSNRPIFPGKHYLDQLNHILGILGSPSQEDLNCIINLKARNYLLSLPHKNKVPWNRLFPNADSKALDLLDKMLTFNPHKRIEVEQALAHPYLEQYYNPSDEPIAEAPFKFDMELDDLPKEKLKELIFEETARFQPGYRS

The IC50 is the concentration at which inhibition is half-maximal. As for `CCOc1ccc(C=C2SC(=O)N(CCN)C2=O)cc1` [Compound 76], the “reduction in binding affinity compared to wild type ERK2” value in test [1] is on record as “approximately 5 fold”. For the same compound, in test [2], the “effect on ERK-mediated Elk-1 phosphorylation (in words)” value is “inhibited”. In test [3], the “effect on ERK1/2 phosphorylation on activating sites” value is reported as “largely unaffected”. The IC50 in test [4] is ~25 µM.

These data come from patent US20070066616A1, “Inhibitors for extracellular signal-regulated kinase docking domains and uses therefor” (priority 2005, published 2007).
